The subject of assay [1] is reverse passive Arthus reaction (RPA) in rats. Briefly: Reverse passive Arthus reaction (RPA) in rats. In kind it is in vivo, Charles Foster rats of both sexes. The note with it: Rattus norvegicus, po, 4 h, one hour before RPA, edema vs untreated control; for inhibition in vivo at 2.5 mg/kg: dose 2.5 mg/kg p.o.; for inhibition in vivo at 5 mg/kg: dose 5.0 mg/kg p.o.; for inhibition in vivo at 10 mg/kg: dose 10.0 mg/kg p.o.; for inhibition in vivo at 20 mg/kg: dose 20.0 mg/kg p.o. The method, then:
Charles Foster rats of both sexes, weighing 150-180 g, were sorted into groups of six animals each. 24 hours before the initiation of the RPA, the rats were shaved from the mid-dorsal region and fasted overnight. The test compounds were administered orally one hour before inducing the Arthus reaction. The RPA reaction was induced by intradermal injection of 0.1 ml of appropriately diluted rabbit anti-BSA serum. Immediately after the intradermal exposure, each rat received 0.5 ml of 0.4% bovine serum albumin intraveneously. Four hours after the intradermal challenge, each group of animals was killed by cervical dislocation. The full thickness of the skin was removed from the back of each animal, and a 12 mm diameter disk was punched out with a metal punch from the site of the antiserum injection. The wet weight of each skin site was determined as soon as possible. The edema caused by the RPA was measured as the difference (expressed in mg) between the wet weight of the site injected with antibody and that injected with normal rabbit serum. The results are expressed as the percentage inhibition or potentiation of the edema by the compound as compared with the edema induced in the untreated control animals.

Assay [2] has as its system carrageenin-induced paw edema in rats. Nature of the assay: Systemic anti-inflammatory action on carrageenin-induced paw edema in rats. In kind it is in vivo, male Charles Foster rats. The note with it: Rattus norvegicus, po; decrease in paw volume, 3 and 6 hours after carrageenin; from dose/response curve; read-out: ED50. As to the method: Male Charles Foster rats (120-150 g) were fasted for 18 hours, with water ad libitum. The test compound dissolved in distilled water was administered orally. The control group received distilled water. 0/05 ml of 0.5% carrageenin suspension was injected subcutaneously into the plantar region of the left hind paw. Using a Maclab differential volume meter, the paw volume was determined before the carrageenin injection and 3 and 6 hours after the injection. The percentage decrease in paw volume was calculated by the following equation: [formula] The ED50 value was calculated from the dose/response curve. Six animals were used for each group. The results with representative compounds according to the invention and their salts are listed in Table 4, the substituents relating to the following formula Ia: [drawing 11]

Structures can show the parent of a compound that is named as a salt.

In patent publication US4900727A, “4H-1-benzopyran-4-one compounds which have anti-inflamatory or immunodulating action” (Hoechst Aktiengesellschaft, priority 1986, dated 1990) one finds inhibition in vivo and ED50 data, which are given here for three molecules.

On to `CN1CC[C@H](c2c(O)cc(O)c3c(=O)cc(-c4ccccc4)oc23)[C@H](O)C1` (single isomer, unassigned) [(-) Phenyl H CH3 HCl.1/2H2 O, cis-(-)-5,7-dihydroxy-2-phenyl-8-[4'-(3'-hydroxy-1'-methyl)-piperidinyl]-4H-1-benzopyran-4-one], for which, in assay [1], the inhibition in vivo at 2.5 mg/kg was 26.2%, the inhibition in vivo at 5 mg/kg amounted to 64.5% and the inhibition in vivo at 10 mg/kg came to 92.2%. The ED50 in assay [2] was 1.3 mg/kg.
On to `Cc1cc(=O)c2c(O)cc(O)c(C3CCN(CC4CC4)CC3O)c2o1` (single isomer, unassigned; (-)) [(-) CH3 H [drawing 12] HCl.H2 O, cis-(-)-5,7-Dihydroxy-2-methyl-8-[4'-(1'-cyclopropylmethyl-3'-hydroxy)-piperidinyl]-4H-1-benzopyran-4-one hydrochloride], for which, in assay [1], the inhibition in vivo at 2.5 mg/kg was 23%, the inhibition in vivo at 5 mg/kg is 49.7% and the inhibition in vivo at 20 mg/kg amounted to 74%. For the same molecule, the ED50 in assay [2] was 10 mg/kg.
Consider `CCCc1cc(=O)c2c(O)cc(O)c(C3CCN(C)CC3O)c2o1` (single isomer, unassigned; (-)) [(-) n-C3 H7 H CH3 HCl.H2 O, cis-(-)-5,7-dihydroxy-2-n-propyl-8-[4'-(3'-hydroxy-1'-methyl)-piperidinyl]-4H-1-benzopyran-4-one], for which, in assay [1], the inhibition in vivo at 2.5 mg/kg was 42.7%, the inhibition in vivo at 5 mg/kg is 41.3%, the inhibition in vivo at 10 mg/kg is 63.7% and the inhibition in vivo at 20 mg/kg is 72.1%. The ED50 in assay [2] is 5.8 mg/kg.
